Experiments:
Assay type in all cases: in vivo
[1] = test system: blackgrass (Alopecurus myosuroides); assay: Test A postemergence, blackgrass; conditions: Postemergence, 0 to 100 scale (0 no effect, 100 complete control); for Plant response rating, Blackgrass: 125 g ai/ha; for Blackgrass plant response rating: 500 g ai/ha, visual injury vs untreated controls after approx. 10 days
How it was run: (§1)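 Whole-plant herbicidal screen in pots of loam blended with sand. Sprays used a surfactant-containing, non-phytotoxic solvent vehicle. Timing was preemergence soil-directed at planting or postemergence at the one- to two-leaf stage (2–10 cm).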

[2] = test system: pigweed (Amaranthus retroflexus); assay: Test A postemergence, pigweed; conditions: Postemergence, 0 to 100 scale (0 no effect, 100 complete control); for Plant response rating, Pigweed: 125 g ai/ha; for Pigweed plant response rating: 500 g ai/ha, visual injury vs untreated controls after approx. 10 days
How it was run: as §1

[3] = test system: ragweed (common ragweed, Ambrosia artemisiifolia); assay: Test A postemergence, ragweed; conditions: Postemergence, 0 to 100 scale (0 no effect, 100 complete control); for Plant response rating, Ragweed: 125 g ai/ha; for Ragweed plant response rating: 500 g ai/ha, visual injury vs untreated controls after approx. 10 days
How it was run: as §1

[4] = test system: galium (catchweed bedstraw, Galium aparine); assay: Test A postemergence, galium; conditions: Postemergence, 0 to 100 scale (0 no effect, 100 complete control); for Plant response rating, Galium: 125 g ai/ha; for Galium plant response rating: 500 g ai/ha, visual injury vs untreated controls after approx. 10 days
How it was run: (§2)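 Compounds in non-phytotoxic solvent with surfactant. Soil: loam/sand. Preemergence via directed soil spray after seeding; postemergence on seedlings 2–10 cm, one- to two-leaf.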

[5] = test system: barnyardgrass (Echinochloa crus-galli); assay: Test A postemergence, barnyardgrass; conditions: Postemergence, 0 to 100 scale (0 no effect, 100 complete control); for Plant response rating, Barnyardgrass: 125 g ai/ha; for Barnyardgrass plant response rating: 500 g ai/ha, visual injury vs untreated controls after approx. 10 days
How it was run: as §2

[6] = test system: Foxtail, Giant (giant foxtail, Setaria faberi); assay: Test A postemergence, Foxtail, Giant; conditions: Postemergence, 0 to 100 scale (0 no effect, 100 complete control); for Plant response rating, Foxtail, Giant: 125 g ai/ha; for Foxtail, Giant plant response rating: 500 g ai/ha, visual injury vs untreated controls after approx. 10 days
How it was run: as §1

[7] = test system: wheat (Triticum aestivum); assay: Test A postemergence, wheat; conditions: Postemergence, 0 to 100 scale (0 no effect, 100 complete control); for Plant response rating, Wheat: 125 g ai/ha; for Wheat plant response rating: 500 g ai/ha, visual injury vs untreated controls after approx. 10 days
How it was run: as §2

kochia (Bassia scoparia) [8] = assay: Test A postemergence, kochia; conditions: Postemergence, 0 to 100 scale (0 no effect, 100 complete control); for Plant response rating, Kochia: 125 g ai/ha; for Kochia plant response rating: 500 g ai/ha, visual injury vs untreated controls after approx. 10 days
How it was run: as §1

[9] = test system: Ryegrass, Italian (Italian ryegrass, Lolium multiflorum); assay: Test A preemergence, Ryegrass, Italian; conditions: Preemergence; for Plant response rating, Ryegrass, Italian: 0 to 100 scale (0 no effect, 100 complete control)
How it was run: as §1

[10] = test system: barnyardgrass (Echinochloa crus-galli); assay: Test A preemergence, barnyardgrass; conditions: Preemergence; for Plant response rating, Barnyardgrass: 0 to 100 scale (0 no effect, 100 complete control)
How it was run: as §1

[11] = test system: pigweed (Amaranthus retroflexus); assay: Test A preemergence, pigweed; conditions: for Plant response rating, Pigweed: 0 to 100 scale (0 no effect, 100 complete control)
How it was run: as §2

corn (Zea mays) = assay: Test A postemergence, corn; conditions: Postemergence, 0 to 100 scale (0 no effect, 100 complete control); for Plant response rating, Corn: 125 g ai/ha; for Corn plant response rating: 500 g ai/ha, visual injury vs untreated controls after approx. 10 days
How it was run: as §1

[12] = test system: Ryegrass, Italian (Italian ryegrass, Lolium multiflorum); assay: Test A postemergence, Ryegrass, Italian; conditions: Postemergence, 0 to 100 scale (0 no effect, 100 complete control); for Plant response rating, Ryegrass, Italian: 125 g ai/ha; for Ryegrass, Italian plant response rating: 500 g ai/ha, visual injury vs untreated controls after approx. 10 days
How it was run: as §1

[13] = test system: ragweed (common ragweed, Ambrosia artemisiifolia); assay: Test A preemergence, ragweed; conditions: Preemergence; for Plant response rating, Ragweed: 0 to 100 scale (0 no effect, 100 complete control)
How it was run: as §1

[14] = test system: Foxtail, Giant (giant foxtail, Setaria faberi); assay: Test A preemergence, Foxtail, Giant; conditions: Preemergence; for Plant response rating, Foxtail, Giant: 0 to 100 scale (0 no effect, 100 complete control)
How it was run: as §1

kochia (Bassia scoparia) [15] = assay: Test A preemergence, kochia; conditions: Preemergence; for Plant response rating, Kochia: 0 to 100 scale (0 no effect, 100 complete control)
How it was run: as §1

[16] = 125 g ai/ha, visual injury on 0 to 100 scale (0 no effect, 100 complete control), approximately 10 days
[17] = 125 g ai/ha, visual injury, approx. 10 days

| Structure (SMILES) | Plant response rating, Blackgrass [1] | Blackgrass plant response rating [1] | Plant response rating, Pigweed [2] | Pigweed plant response rating [2] | Plant response rating, Ragweed [3] | Ragweed plant response rating [3] | Plant response rating, Galium [4] | Galium plant response rating [4] | Plant response rating, Barnyardgrass [5] | Barnyardgrass plant response rating [5] | Plant response rating, Foxtail, Giant [6] | Foxtail, Giant plant response rating [6] | Plant response rating, Wheat [7] | Wheat plant response rating [7] | Plant response rating, Kochia (kochia (Bassia scoparia) [8]) | Kochia plant response rating (kochia (Bassia scoparia) [8]) | Plant response rating, Ryegrass, Italian ([9]; 500 g ai/ha) | Plant response rating, Barnyardgrass ([10]; 500 g ai/ha) | Plant response rating, Pigweed ([11]; 500 g ai/ha) | Plant response rating, Corn (corn (Zea mays)) | other results |
| --- | --- | --- | --- | --- | --- | --- | --- | --- | --- | --- | --- | --- | --- | --- | --- | --- | --- | --- | --- | --- | --- |
| C#CCN(CC#C)C(=O)c1cc(NS(=O)(=O)C(F)(F)F)c(C)cc1C [Compound 187] | 20 | 20 | 30 | 60 | 80 | 90 | 80 | 80 | 90 | 90 | 80 | 90 | 70 | 70 | 50 | 70 | 100 | 100 | 80 | 80 | Ryegrass, Italian plant response rating [9, 16]: 100; Barnyardgrass plant response rating [10, 16]: 100; Pigweed plant response rating [11, 16]: 70; Corn plant response rating (corn (Zea mays)): 90; Plant response rating, Ryegrass, Italian [12]: 90; Ryegrass, Italian plant response rating [12]: 80; Ragweed plant response rating [13, 16]: 70; Plant response rating, Ragweed ([13]; 500 g ai/ha): 90; Foxtail, Giant plant response rating [14, 16]: 100; Plant response rating, Foxtail, Giant ([14]; 500 g ai/ha): 100; Kochia plant response rating (kochia (Bassia scoparia) [15]; [16]): 80; Plant response rating, Kochia (kochia (Bassia scoparia) [15]; 500 g ai/ha): 80 |
| CCN(CC)C(=O)c1cc(NS(=O)(=O)C(F)(F)F)c(C)cc1C [Compound 188] | 0 | 0 | 20 | 80 | 20 | 70 | 40 | 50 | 10 | 70 | 0 | 20 | 40 | 70 | 0 | 0 | 100 | 90 | 90 | 10 | Plant response rating, Ryegrass, Italian [9, 17]: 50; Plant response rating, Barnyardgrass [10, 17]: 60; Plant response rating, Pigweed [11, 17]: 50; Corn plant response rating (corn (Zea mays)): 30; Plant response rating, Ryegrass, Italian [12]: 0; Ryegrass, Italian plant response rating [12]: 40; Plant response rating, Ragweed [13, 17]: 40; Plant response rating, Ragweed ([13]; 500 g ai/ha): 50; Plant response rating, Foxtail, Giant [14, 17]: 0; Plant response rating, Foxtail, Giant ([14]; 500 g ai/ha): 100; Plant response rating, Kochia (kochia (Bassia scoparia) [15]; [17]): 20; Plant response rating, Kochia (kochia (Bassia scoparia) [15]; 500 g ai/ha): 60 |
| C#CCN(C)C(=O)c1cc(NS(=O)(=O)C(F)(F)F)c(C)cc1C [Compound 189] | 30 | 20 | 60 | 90 | 90 | 90 | 90 | 90 | 80 | 90 | 60 | 90 | 50 | 70 | 20 | 80 | 100 | 100 | 100 | 20 | Plant response rating, Ryegrass, Italian [9, 17]: 90; Plant response rating, Barnyardgrass [10, 17]: 80; Plant response rating, Pigweed [11, 17]: 90; Corn plant response rating (corn (Zea mays)): 80; Plant response rating, Ryegrass, Italian [12]: 80; Ryegrass, Italian plant response rating [12]: 80; Plant response rating, Ragweed [13, 17]: 80; Plant response rating, Ragweed ([13]; 500 g ai/ha): 90; Plant response rating, Foxtail, Giant [14, 17]: 100; Plant response rating, Foxtail, Giant ([14]; 500 g ai/ha): 100; Plant response rating, Kochia (kochia (Bassia scoparia) [15]; [17]): 80; Plant response rating, Kochia (kochia (Bassia scoparia) [15]; 500 g ai/ha): 100 |
| Cc1c(NS(=O)(=O)C(F)(F)F)cc(C(=O)N2CCCCC2)c(C)c1F [Compound 191] | 0 | 0 | 20 | 70 | 20 | 60 | 70 | 90 | 0 | 30 | 0 | 20 | 30 | 60 | 0 | 20 | 100 | 100 | 100 | 0 | Plant response rating, Ryegrass, Italian [9, 17]: 70; Plant response rating, Barnyardgrass [10, 17]: 100; Plant response rating, Pigweed [11, 17]: 100; Corn plant response rating (corn (Zea mays)): 10; Plant response rating, Ryegrass, Italian [12]: 30; Ryegrass, Italian plant response rating [12]: 60; Plant response rating, Ragweed [13, 17]: 60; Plant response rating, Ragweed ([13]; 500 g ai/ha): 100; Plant response rating, Foxtail, Giant [14, 17]: 100; Plant response rating, Foxtail, Giant ([14]; 500 g ai/ha): 100; Plant response rating, Kochia (kochia (Bassia scoparia) [15]; [17]): 90; Plant response rating, Kochia (kochia (Bassia scoparia) [15]; 500 g ai/ha): 90 |
